From the NIST ThermoML archive (doi:10.1016/j.jct.2018.05.022)

Assay: molar heat capacity at constant volume
Conditions: Liquid, Vacuum adiabatic calorimetry

C=C(F)C(F)(F)F [2,3,3,3-tetrafluoro-1-propene]
Conditions | molar heat capacity at constant volume [J/K/mol]
240.93 K, 2261 kPa | 92.26
241.09 K, 2247 kPa | 91.8
243.43 K, 4295 kPa | 92.26
243.57 K, 4255 kPa | 92.26
245.94 K, 6342 kPa | 92.37
246.04 K, 6272 kPa | 92.15
248.38 K, 8336 kPa | 92.72
248.49 K, 8272 kPa | 93.06
250.77 K, 10288 kPa | 93.29
250.92 K, 10256 kPa | 93.4
255.49 K, 1804 kPa | 95.79
255.68 K, 1821 kPa | 96.48
257.93 K, 3569 kPa | 97.51
258.1 K, 3572 kPa | 96.48
260.34 K, 5312 kPa | 97.62
260.51 K, 5317 kPa | 97.16
262.77 K, 7065 kPa | 97.51
262.92 K, 7055 kPa | 98.53
265.3 K, 8891 kPa | 98.65
265.35 K, 8807 kPa | 98.87
267.77 K, 10554 kPa | 98.87
267.88 K, 10750 kPa | 99.22
270.17 K, 12276 kPa | 99.56
271.12 K, 1842 kPa | 101.38
273.54 K, 1673 kPa | 102.07
273.64 K, 3435 kPa | 101.5
275.98 K, 3181 kPa | 102.07
276.14 K, 5012 kPa | 101.27
278.43 K, 4690 kPa | 101.95
278.65 K, 6595 kPa | 102.3
280.94 K, 6231 kPa | 102.64
281.16 K, 8178 kPa | 101.61
283.46 K, 7781 kPa | 102.75
283.66 K, 9754 kPa | 102.52
285.91 K, 9285 kPa | 102.98
286.19 K, 11346 kPa | 103.09
288.36 K, 10789 kPa | 104.01
289.3 K, 1701 kPa | 105.15
291.52 K, 1716 kPa | 105.72
291.84 K, 3037 kPa | 105.49
294.09 K, 3043 kPa | 106.4
294.38 K, 4378 kPa | 105.37
296.67 K, 4372 kPa | 106.4
296.96 K, 5740 kPa | 105.49
299.24 K, 5702 kPa | 106.97
299.7 K, 7182 kPa | 105.94
301.83 K, 7034 kPa | 106.86
302.46 K, 8635 kPa | 106.74
304.42 K, 8365 kPa | 107.54
305.12 K, 10039 kPa | 106.29
307.01 K, 9699 kPa | 108
307.78 K, 11440 kPa | 106.97
309.61 K, 11035 kPa | 108.34
310.44 K, 12837 kPa | 107.54
312.2 K, 12365 kPa | 108.8
312.59 K, 3164 kPa | 108.57
315.28 K, 1983 kPa | 109.37
315.29 K, 4301 kPa | 108.8
317.99 K, 5437 kPa | 108.91
318.03 K, 3065 kPa | 109.71
320.68 K, 6570 kPa | 110.62
320.8 K, 4151 kPa | 110.05
323.36 K, 7700 kPa | 110.28
323.57 K, 5240 kPa | 110.62
326.04 K, 8827 kPa | 110.62
326.35 K, 6332 kPa | 111.42
328.72 K, 9952 kPa | 112.22
329.14 K, 7427 kPa | 112.67
331.41 K, 11079 kPa | 112.9
331.93 K, 8524 kPa | 113.36
334.09 K, 12201 kPa | 113.24
334.72 K, 9619 kPa | 113.47
337.49 K, 10709 kPa | 113.7
340.26 K, 11796 kPa | 114.61

CCC [propane]
Conditions | molar heat capacity at constant volume [J/K/mol]
236.31 K, 2219 kPa | 65.79
238.69 K, 4211 kPa | 66.23
241.04 K, 6180 kPa | 66.67
243.36 K, 8127 kPa | 66.58
245.69 K, 10074 kPa | 66.94
250.09 K, 2085 kPa | 67.6
252.35 K, 3780 kPa | 68.13
254.59 K, 5476 kPa | 68.13
256.82 K, 7162 kPa | 67.91
259.03 K, 8839 kPa | 68.48
261.25 K, 10512 kPa | 68.61
264.41 K, 2430 kPa | 69.1
266.66 K, 3950 kPa | 69.19
268.92 K, 5488 kPa | 70.24
271.21 K, 7042 kPa | 70.33
273.5 K, 8593 kPa | 70.2
275.81 K, 10155 kPa | 70.55
283.73 K, 2629 kPa | 71.61
284.6 K, 1745 kPa | 71.3
286.92 K, 3057 kPa | 71.88
287.25 K, 4679 kPa | 71.92
289.25 K, 4373 kPa | 72.23
289.61 K, 6040 kPa | 71.96
291.57 K, 5681 kPa | 72.32
291.99 K, 7411 kPa | 72.36
293.9 K, 6981 kPa | 72.98
294.35 K, 8774 kPa | 72.85
296.28 K, 8309 kPa | 73.15
296.69 K, 10124 kPa | 72.93
298.66 K, 9622 kPa | 73.2
299 K, 11450 kPa | 73.24
300.98 K, 10901 kPa | 74.35
301.28 K, 12754 kPa | 73.24
303.33 K, 12177 kPa | 74.65
305.66 K, 13418 kPa | 75.09
306.13 K, 1912 kPa | 74.7
308.58 K, 3022 kPa | 75.58
311.04 K, 4140 kPa | 75.62
313.5 K, 5260 kPa | 76.42
315.96 K, 6379 kPa | 76.55
318.43 K, 7498 kPa | 76.59
320.89 K, 8615 kPa | 77.52
323.37 K, 9735 kPa | 77.74
325.84 K, 10852 kPa | 78.18
328.28 K, 11956 kPa | 78.89
330.71 K, 13052 kPa | 79.33
332.33 K, 10672 kPa | 78.89
334.81 K, 11722 kPa | 79.81
337.26 K, 12761 kPa | 80.47
339.76 K, 13813 kPa | 80.65
